According to article PMC4138991, “Building a Better Dynasore: The Dyngo Compounds Potently Inhibit Dynamin and Endocytosis” (Traffic (Copenhagen, Denmark), 2013):
“Also recorded” adds a separate entry of the source.

How the values were obtained:
[1] = tested on: mitochondria in HeLa cells; test: Mitotracker labeling of mitochondria, live confocal imaging; type: cell-based; settings: 30 μM 4a, 30 μM 6a or 100 μM dynasore, 30 min
Text: Dynasore was originally reported to inhibit the GTPase activity of dynamin‐like protein 1 (Dlp‐1), which is involved in mitochondrial fission. This raises the possibility that dynasore and the Dyngo compounds may affect mitochondrial morphology and/or dynamics in cells. We investigated this by labeling mitochondria in live HeLa cells using Mitotracker Green FM and imaging the cells over time using confocal microscopy. These cells stably expressed an mCherry‐conjugated form of the nuclear histone protein H2B, providing contrast to the green mitochondria.
HeLa cells were used that had been stably transduced to express H2B-mCherry. Cells were cultured at 37 °C, 5% CO2 in RPMI medium with 10% FBS. Expression of the transgene was maintained by puromycin selection. The day before imaging, cells were seeded on 4-chambered, glass bottomed 35 mm round dish at a density of 1 x 10^5 cells per chamber. The next day, cells were washed 4x in PBS and then incubated either in RPMI + 10% FBS or RPMI alone for 4 h. Medium was then removed and replaced with Mitotracker green-FM (150 nM) diluted in Hank’s buffered salt solution. Cells were incubated in Mitotracker for 20 min and then returned to RPMI either with or without serum. Cells were then imaged in a Yokugawa CV1000 Cell Voyager live cell confocal system prior to the application of compounds. Compounds were then applied: control samples received 1% DMSO, while test samples received 4a, 6a or dynasore (final DMSO concentration of 1%). Cells were incubated for at 37 °C, 5% CO2 and then images acquired over 2 h at 6 min intervals. 6 images were taken of each test condition.

[2] = target: T1, clathrin heavy chain binding to amphiphysin 1 (Homo sapiens, UniProt Q00610); test: ELISA-based clathrin binding assay; settings: up to 300 μM
T1 construct: recombinant GST-tagged clathrin heavy chain TD (amino acids 1-364); made in house; host or cells: bacteria
T1 sequence (Q00610 1-364): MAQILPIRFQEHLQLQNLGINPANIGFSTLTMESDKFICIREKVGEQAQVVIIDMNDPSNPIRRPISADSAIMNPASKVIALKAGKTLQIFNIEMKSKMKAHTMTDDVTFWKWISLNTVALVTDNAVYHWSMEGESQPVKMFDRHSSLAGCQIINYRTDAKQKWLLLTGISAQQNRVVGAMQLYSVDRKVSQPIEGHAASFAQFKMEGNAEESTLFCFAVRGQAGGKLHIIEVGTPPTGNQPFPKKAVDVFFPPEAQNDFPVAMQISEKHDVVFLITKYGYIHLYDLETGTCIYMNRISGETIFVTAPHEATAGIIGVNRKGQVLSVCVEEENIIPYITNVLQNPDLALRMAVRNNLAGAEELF
Protocol: The assay for the interaction of amphiphysin with either clathrin or AP2 was based on our previous report (11). Bacterially expressed recombinant purified His6-tagged amphiphysin 1 PRD+CLAP domains (amino acids 250-578) in screening buffer (20 mM HEPES, pH 7.4, 50 mM NaCl, 1 mM DTT, 1 mM PMSF) was added to a 384 well ELISA plate (high-binding PS Microplate, Greiner Bio-One) and bound to the plastic at room temperature for 1 hr. Non-specific binding was reduced by overnight incubation with 50 µL blocking buffer (20 mM HEPES, pH 7.4, 50 mM NaCl, 1 mM PMSF, 2 % BSA, 2.5 % skim milk) at 4 °C. Following extensive washes (with 20 mM HEPES, pH 7.4, 50 mM NaCl, 0.05 % Tween 20), chemical compounds diluted in DMSO (10 µL) were added and incubated together with bacterially expressed recombinant GST-tagged clathrin heavy chain TD (amino acids 1-364) or GST-AP-2 α-appendage (amino acids 702–938) for 1 hr at room temperature in screening buffer. This incubation was in the presence of test compounds diluted in 1% DMSO or 1% DMSO alone as a control. After 3 washes, horseradish peroxidase-coupled anti-GST antibodies were added in screening buffer and the plate incubated for 15 min at room temperature. Following additional washes, 50 µL TMB (3,3′,5,5′-tetramethylbenzidine) (Pierce Biotechnology) chromogenic substrate of horseradish peroxidase was added and the plate was incubated for 20 min before the reaction was terminated by adding 50 µL 1 N sulfuric acid to produce a yellow colour. The amount of bound protein was determined by spectrophotometric measurement in a plate reader in triplicates. Relative binding was calculated as a percentage of the DMSO control.

[3] = tested on: HeLa cells; test: LDH toxicity assay; type: cell-based; settings: 8-h exposure, with or without serum
Protocol: Cytotoxicity was assayed by determination of lactate dehydrogenase (LDH) activity. HeLa cells were seeded in 96 well plates as described previously (11) Asynchronously growing cells were treated in the presence or absence of MiTMAB or the indicated Dyngo compound in the presence and absence of FCS at the indicated concentration for 8h. The supernatant (50 μL) was added to 100 μL of LDH assay reagent (Sigma- Aldrich) and the reaction was allowed to develop for 20 min. Absorbance was measured at 490 nm and 690 nm (plate background absorbance). Values were normalized to drug/media background value and toxicity was calculated as a % of a 100% lysed cell control.

[4] = tested on: CT-555 uptake in NIH3T3 cells; type: cell-based; settings: NIH3T3, 20, 50 or 80 μM

| SMILES | mitochondrial morphology [1] | inhibition of clathrin heavy chain binding to amphiphysin 1 [2] | generalized cytotoxicity by LDH activity [3] | effect on dynamin-independent endocytosis of cholera toxin [4] |
| --- | --- | --- | --- | --- |
| O=C(N/N=C/c1cc(O)c(O)cc1O)c1cc2ccccc2cc1O [4a, (E)-3-Hydroxy-N'-(2,4,5-trihydroxybenzylidene) -2-naphthohydrazide] | did not mediate any changes in mitochondrial morphology | None of the compounds inhibited this interaction | did not exhibit generalized cytotoxicity | no effect; also recorded: much less effect; also recorded: does not block |
| O=C(N/N=C/c1cccc(O)c1O)c1cc2ccccc2cc1O [6a, (E)-N'-(2,3-Dihydroxybenzylidene)-3-hydroxy-2-naphthohydrazide] | appeared to cause mitochondrial fragmentation | None of the compounds inhibited this interaction | did not exhibit generalized cytotoxicity | no effect |
| O=C(N/N=C/c1ccc(O)c(O)c1)c1cc2ccccc2cc1O [Dynasore, (E)-N'-(3,4-Dihydroxybenzylidene)-3-hydroxy-2-naphthohydrazide] | did not mediate any changes in mitochondrial morphology | None of the compounds inhibited this interaction | did not exhibit generalized cytotoxicity | much less effect |
